Among the data in US20220281860A1, “COMPOUNDS AND METHODS OF TREATING RNA-MEDIATED DISEASES” (Arrakis Therapeutics, Inc., priority 2016, published 2022) are STD signals values, retold here.

For the assay, the system named is RNA3WJ_0.0.0_5IB_3FAM. In words: Ligand observed NMR binding assay (WaterLOGSY, STD). The note with it: 10 μM RNA3WJ_0.0.0_5IB_3FAM +/− 200 compound. The procedure: Purpose: Test direct binding of compounds for RNA three way junction (3WJ). This ligand observed NMR assay is used to test direct binding of compounds to an RNA target, for example a 38 nt synthetic RNA 3WJ and others as described below. Ligand observed assay was used for hit validation studies of single compounds. Established experiments were eventually used to perform group epitope mapping, described below.
Sample buffer: 10 mM Cacodylate, pH 7.1; 0.68 g [MW: 137.99 g/mol]; fill up to 500 ml with Millipore H2O.
Compound Stocks: Tool compounds provided as dry powder were prepared as 50 mM stock solution in 100% d6-DMSO. […]
Proton 900 pulse is determined and water resonance frequency is adjusted to ensure maximal water suppression. The determined values are transferred to the NMR experiments that will be recorded for the respective sample. […]
Python scripts are used to process all recorded spectra in the assay setup, screening and deconvolution process.
Spectra were analyzed for direct binding signals of the compounds. […]
ARK0000013 was also tested in the NMR binding assay. Test Sample: 10 μM RNA3WJ_0.0.0_5IB_3FAM+/−200 Ark000013. ^1H 1D Watergate & WaterLOGSY spectra recorded of Ark000013 were used as a reference (Note: aromatic signals observed between 7.4-7.9 ppm and due to symmetry of the center triptycene scaffold all 9 protons are magnetically equivalent).

On to `CN(CCCN)CCCNC(=O)c1ccc2c(c1)C1c3cc(C(=O)NCCCN(C)CCCN)ccc3C2c2ccc(C(=O)NCCCN(C)CCCN)cc21` [Ark0000013, N^2,N^7,N^15-tris(3-((3-aminopropyl)(methyl)amino)propyl)-9,10-dihydro-9,10-[1,2]benzenoanthracene-2,7,15-tricarboxamide], for which the STD signals entry is reported as “small signals that were sufficient to qualitatively confirm binding”.
